Laboratory results as given in US20260265239A1, “CRYSTAL FORM OF 2,6-PIPERIDINEDIONE COMPOUND, AND PREPARATION METHOD THEREFOR AND USE THEREOF” (ZHANGZHOU PIEN TZE HUANG PHARMACEUTICAL CO., LTD., priority 2023, published 2026).

How the values were obtained:
[1] = Solid stability test under high temperature, high humidity and strong light exposure; type: physicochemical
Procedure: Samples placed under high-temperature conditions were examined in an electric blast drying oven, while samples placed under high-humidity conditions were examined in a comprehensive drug stability test chamber. Sampling and testing were conducted on the 5th, 10th, and 30th days, and the test results were compared with the initial test results on day 0. Samples placed under strong light exposure conditions were left open, and sampling and testing were performed on the 5th and 10th days, with the test results compared to the initial test results on day 0.

[2] = Pressure (mechanical) stability, XRPD; type: physicochemical; details: 350 MPa
Procedure: (§1) • Instrument model: PANalytacal X-ray Powder Diffractometer • Test method: Approximately 10 to 20 mg of the sample is used for XRPD detection.
(§2) The detailed XRPD parameters are as follows: • X-ray tube: Cu, kα, (λ=1.540598 Å, λ=1.544426 Å). • X-ray tube voltage: 45 kV, X-ray tube current: 40 mA • Divergence slit: ⅛° • Scan mode: continuous • Scanning range (°2Theta): 3-40 • Scanning time per step (s): 46.7 • Scanning step size (°2Theta): […] • Test duration: approximately 5 min
The sample in the mold was compressed under a pressure of 350 MPa. The solid was collected for XRPD characterization.

[3] = Solid stability test under long-term conditions; type: physicochemical
Excerpt: Samples were taken for testing at the 1st and 2nd months, and the test results were compared with the initial test results at day 0.

[4] = Hygroscopicity study by dynamic vapor sorption (DVS); type: physicochemical
Procedure: • Instrument model: DVS Intrinsic Plus Dynamic Vapor Sorption Analyzer from SMS (Surface Measurement Systems) • Test conditions: The sample (10 to 20 mg) is placed in a DVS sample pan for testing.
The detailed DVS parameters are as follows: • Temperature: 25° C. • Equilibrium: dm/dt=0.002%/min (minimum: 10 min, maximum: 180 min) • Drying: 120 min at 0% RH • RH (%) test steps: 10% • RH (%) test step range: 0%-95%-0%
The hygroscopicity evaluation is classified as follows:
• DVS Intrinsic Plus Dynamic Vapor Sorption Analyzer from SMS (Surface Measurement Systems).

[5] = Stability in solvents: suspension stirring at room temperature, XRPD; type: physicochemical; details: acetone, tetrahydrofuran, 1,4-dioxane, methanol, ethanol, isopropanol, water and mixed solvents with water
Procedure: as §1, §2
The resulting suspensions were magnetically stirred at room temperature (1000 rpm) for 3 days, then centrifuged to collect the solids, which were subjected to XRPD testing.

[6] = Solid stability test under accelerated conditions; type: physicochemical
Excerpt: Samples were taken for testing at the 1st, 2nd, and 3rd months, and the test results were compared with the initial test results at day 0.

[7] = Stability in solvents: anti-solvent addition, XRPD; type: physicochemical; details: anti-solvent Water
Procedure: as §1, §2
While stirring (1000 rpm), the anti-solvent listed in the table below was added dropwise to the clear solution until solids precipitated, or until the total volume of anti-solvent reached 10 mL. Samples without precipitation were stirred in suspension at 5° C., while clear samples were transferred to −20° C. for suspension stirring. If still clear, the samples were transferred to room temperature for volatilization. The precipitated solids were isolated and subjected to XRPD testing.

[8] = Pharmacokinetic evaluation in beagle dogs; type: in vivo; details: Intragastric administration, 5 mg/kg, listed as Crystal Form A of Compound of Formula (I)
Excerpt: Male beagle dogs were selected as the experimental animals in this study. The LC/MS/MS method was employed to quantitatively determine the plasma drug concentrations at different time points after intravenous injection or intragastric administration of the test compound, aiming to evaluate the pharmacokinetic characteristics of the compound of the present disclosure in beagle dogs.
Beagle dogs (male, 7 to 10 kg, Beijing Mars Biotechnology Co., Ltd.).
A solution of the test compound was slowly injected intravenously into beagle dogs (fed) via the peripheral vein (vehicle: 5% DMSO/10% Solutol/85% H2O), or administered intragastrically to beagle dogs (fed). For intravenous administration, 0.5 mL of blood was collected from the peripheral vein at 0.083, 0.25, 0.5, 1, 2, 4, 6, 8, and 24 h after administration, placed in EDTA-2K anticoagulant tubes, and centrifuged at 3200 g for 10 minutes at 2 to 8° C. to separate the supernatant. For intragastric administration, 0.5 mL of blood was collected from the peripheral vein at 0.083, 0.25, 0.5, 1, 2, 4, 6, 8, and 24 h after administration, placed in EDTA-2K anticoagulant tubes, and centrifuged at 3200 g for 10 minutes at 2 to 8° C. to separate the supernatant. Plasma drug concentrations were determined by the LC-MS/MS method, and relevant pharmacokinetic parameters were calculated using Phoenix WinNonlin 6.3 or 8.3.5 pharmacokinetic software with non-compartmental model linear-log trapezoidal method.

[9] = High Humidity (Room Temperature/Relative Humidity: 92.5%, Open), Day 5
[10] = High Humidity (Room Temperature/Relative Humidity: 92.5%, Open), Day 10
[11] = High Temperature (60° C., Open), Day 5
[12] = High Temperature (60° C., Open), Day 10
[13] = Strong Light Exposure (5000 ± 500 Lux, 90 μw/cm^2, Open), Day 10
[14] = Strong Light Exposure test, Day 10 (Light Exposure Control)
[15] = 25° C./60% Relative Humidity, Sealed + Desiccant, 1 month
[16] = 25° C./60% Relative Humidity, Sealed + Desiccant, 2 month
[17] = 40° C./75% Relative Humidity, Sealed + Desiccant, 1 month
[18] = 40° C./75% Relative Humidity, Sealed + Desiccant, 2 month
[19] = 40° C./75% Relative Humidity, Sealed + Desiccant, 3 month

## O=C1CCC(c2noc3ccc4c(NC(=O)CN5CCN(C[C@H]6CC[C@H](n7cc(NC(=O)c8coc(-c9ccnc(NCC%10CC%10)c9)n8)c(C(F)F)n7)CC6)CC5)cccc4c23)C(=O)N1 (stereo partly shown)
[1]; Day 0
  Content: 100.0%
  Total Impurities: 2.4%
[1]; [9]
  Content: 99.7%
  Total Impurities: 2.4%
[1]; [10]
  Content: 100.1%
  Total Impurities: 2.5%
[1]; [11]
  Content: 102.8%
  Total Impurities: 2.5%
[1]; [12]
  Content: 102.5%
  Total Impurities: 2.5%
[1]; [13]
  Content: 102.3%
  Total Impurities: 2.6%
[1]; [14]
  Content: 101.5%
  Total Impurities: 2.4%
[1]; high temperature, high humidity, and strong light exposure conditions
  stability (conclusion): good stability
[2]
  stability under compression mold pressure (conclusion): good stability
[3]; [15]
  Content: 99.5%
  Total Impurities: 2.8%
[3]; [16]
  Content: 99.2%
  Total Impurities: 2.9%
[3]; Day 0
  Content: 100.0%
  Total Impurities: 2.4%
[3]; long-term conditions of 25° C./60% relative humidity
  stability (conclusion): good stability
[4]
  crystal form before and after DVS: no change in crystal form
[4]; DVS, 25° C. and 80% RH
  ΔW (hygroscopic weight gain): 3.536%
[5]
  stability in solvents (conclusion): good stability
[6]; [17]
  Content: 99.3%
  Total Impurities: 2.7%
[6]; [18]
  Content: 99.5%
  Total Impurities: 2.7%
[6]; [19]
  Content: 99.1%
  Total Impurities: 2.7%
[6]; Day 0
  Content: 100.0%
  Total Impurities: 2.4%
[6]; accelerated conditions of 40° C./75% relative humidity
  stability (conclusion): good stability
[7]; solvent Dimethyl sulfoxide
  XRPD Results Anti-Solvent Addition: Amorphous
[7]; solvent N-Methylpyrrolidone
  XRPD Results Anti-Solvent Addition: Amorphous
[8]
  Area Under the Drug-Time Curve (0-inf): 8.18 µM·h
  Peak Concentration: 0.70 µM
  Time to Peak Concentration: 5.00 h
